One may read the EC50 as the concentration giving half of the maximal effect.

Data on 26 compounds can be found in patent publication US10590113B2, “6-hydroxy-4-oxo-1,4-dihydropyrimidine-5-carboxamides as APJ agonists” (priority 2016, dated 2020).

This assay addresses T1, human APJ receptor (Homo sapiens, UniProt P35414).
T1 construct: expressed in transfected cells; host or cells: HEK293
T1 sequence (P35414 1-380): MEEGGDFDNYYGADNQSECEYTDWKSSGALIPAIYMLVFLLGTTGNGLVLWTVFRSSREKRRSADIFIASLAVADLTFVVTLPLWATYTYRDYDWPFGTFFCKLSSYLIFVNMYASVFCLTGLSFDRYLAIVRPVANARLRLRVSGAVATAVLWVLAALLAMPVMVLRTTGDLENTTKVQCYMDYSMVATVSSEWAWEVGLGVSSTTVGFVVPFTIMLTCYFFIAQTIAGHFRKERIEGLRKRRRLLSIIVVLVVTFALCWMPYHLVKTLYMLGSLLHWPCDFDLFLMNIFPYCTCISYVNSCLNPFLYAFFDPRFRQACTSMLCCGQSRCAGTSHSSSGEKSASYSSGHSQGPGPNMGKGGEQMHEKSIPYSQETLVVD
Description: Intracellular cAMP Accumulation Assay (APJ hcAMP, HTRF). The note with it: human APJ, cAMP accumulation; potency range class; read-out: hAPJ cAMP EC50 Potency range. In kind it is cell-based. The gist of the method:
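Stably transfected HEK293 cells (5,000/well) incubated 30 min at room temperature with serially diluted compound, […] and 2 μM forskolin. cAMP measured by HTRF after 60 min with detection reagents, quantified against a cAMP standard curve; EC50 from variable-slope sigmoidal fit of inhibition of forskolin-stimulated cAMP.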
On the technique in general: Time-resolved FRET reads energy transfer from a long-lived donor to a nearby acceptor.

Regarding `CCc1cccc(CC)c1-n1c(-c2ccn(CC)n2)nc(=O)c(C(=O)N2CCC(c3ncccc3F)C2)c1O` (single isomer, unassigned) [Example 308, 1-(2,6-diethylphenyl)-2-(1-ethyl-1H-pyrazol-3-yl)-5-[3-(3-fluoropyridin-2-yl)pyrrolidine-1-carbonyl]-6-hydroxy-1,4-dihydropyrimidin-4-one], the EC50 was in the range of 0.01 to 10 nM. In the case of `CCc1cccc(CC)c1-n1c(-c2ccn(CC)n2)nc(=O)c(C(=O)N2CCC(c3ncc(F)cc3F)C2)c1O` (single isomer, unassigned) [Example 309, 1-(2,6-diethylphenyl)-5-[3-(3,5-difluoropyridin-2-yl)pyrrolidine-1-carbonyl]-2-(1-ethyl-1H-pyrazol-3-yl)-6-hydroxy-1,4-dihydropyrimidin-4-one], the EC50 lay in the range of 0.01 to 10 nM. In the case of `CCc1cccc(CC)c1-n1c(-c2cnn(CC)c2)nc(=O)c(C(=O)N2CCC(c3ccccc3F)C2)c1O` (single isomer, unassigned) [Example 310, 1-(2,6-diethylphenyl)-2-(1-ethyl-1H-pyrazol-4-yl)-5-[3-(2-fluorophenyl)pyrrolidine-1-carbonyl]-6-hydroxy-1,4-dihydropyrimidin-4-one], the EC50 is 0.01 to 10 nM. Take `CCc1cccc(CC)c1-n1c(-c2ccn(CC)n2)nc(=O)c(C(=O)N2CCC(c3ncc(Cl)cc3F)C2)c1O` (single isomer, unassigned) [Example 311, 5-[3-(5-chloro-3-fluoropyridin-2-yl)pyrrolidine-1-carbonyl]-1-(2,6-diethylphenyl)-2-(1-ethyl-1H-pyrazol-3-yl)-6-hydroxy-1,4-dihydropyrimidin-4-one]: the half-maximal effective concentration (EC50) lay within 0.01 to 10 nM. For `CCc1cccc(CC)c1-n1c(-c2nc(C)cs2)nc(=O)c(C(=O)N2CCC(c3ncc(Cl)cc3F)C2)c1O` (single isomer, unassigned) [Example 312, 5-[3-(5-chloro-3-fluoropyridin-2-yl)pyrrolidine-1-carbonyl]-1-(2,6-diethylphenyl)-6-hydroxy-2-(4-methyl-1,3-thiazol-2-yl)-1,4-dihydropyrimidin-4-one], the 50% effective concentration (EC50) is 0.01 to 10 nM. Regarding `CCc1cccc(CC)c1-n1c(-c2cnn(CC)c2)nc(=O)c(C(=O)N2CCC(c3ncc(Cl)cc3F)C2)c1O` (single isomer, unassigned) [Example 313, 5-[3-(5-chloro-3-fluoropyridin-2-yl)pyrrolidine-1-carbonyl]-1-(2,6-diethylphenyl)-2-(1-ethyl-1H-pyrazol-4-yl)-6-hydroxy-1,4-dihydropyrimidin-4-one], the concentration for a half-maximal effect (EC50) was in the range of 0.01 to 10 nM. For `CCc1cccc(CC)c1-n1c(-c2cnn(CC)c2)nc(=O)c(C(=O)N2CCC(c3ncc(F)cc3F)C2)c1O` (single isomer, unassigned) [Example 315, 1-(2,6-diethylphenyl)-5-[3-(3,5-difluoropyridin-2-yl)pyrrolidine-1-carbonyl]-2-(1-ethyl-1H-pyrazol-4-yl)-6-hydroxy-1,4-dihydropyrimidin-4-one], the EC50 fell in the range of 0.01 to 10 nM.

In the case of `CCc1cccc(CC)c1-n1c(-c2ccn(CC(C)C)n2)nc(=O)c(C(=O)N2CCC(c3ccc(F)cn3)C2)c1O` (single isomer, unassigned) [Example 318, 1-(2,6-diethylphenyl)-5-[3-(5-fluoropyridin-2-yl)pyrrolidine-1-carbonyl]-6-hydroxy-2-[1-(2-methylpropyl)-1H-pyrazol-3-yl]-1,4-dihydropyrimidin-4-one], the EC50 was in the range of 0.01 to 10 nM.

With `CCc1cccc(CC)c1-n1c(-c2ccn(C3CC3)n2)nc(=O)c(C(=O)N2CCC(c3ncccc3F)C2)c1O` (single isomer, unassigned) [Example 319, 2-(1-cyclopropyl-1H-pyrazol-3-yl)-1-(2,6-diethylphenyl)-5[3(3-fluoropyridin-2-yl)pyrrolidine-1-carbonyl]-6-hydroxy-1,4-dihydropyrimidin-4-one], the EC50 was in the range of 0.01 to 10 nM. On to `CCc1cccc(CC)c1-n1c(-c2ccn(CC(C)C)n2)nc(=O)c(C(=O)N2CCC(c3ncc(F)cc3F)C2)c1O` (single isomer, unassigned) [Example 320, 1-(2,6-diethylphenyl)-5-[3-(3,5-difluoropyridin-2-yl)pyrrolidine-1-carbonyl]-6-hydroxy-2-[1-(2-methylpropyl)-1H-pyrazol-3-yl]-1,4-dihydropyrimidin-4-one], for which the concentration giving a half-maximal response (EC50) fell in the range of 10 to 100 nM. For `CC[C@@H](c1ccccc1)n1c(-c2nc(C)cs2)nc(=O)c(C(=O)N2CCC(c3ncc(F)cc3F)C2)c1O` (single isomer, unassigned) [Example 321] the value was 0.01 to 10 nM; for `CC[C@@H](c1ccccc1)n1c(-c2nc(C)cs2)nc(=O)c(C(=O)N2CCC(c3ccc(F)cn3)C2)c1O` (single isomer, unassigned) [Example 322], 0.01 to 10 nM; for `CC[C@@H](c1ccccc1)n1c(-c2nc(C)cs2)nc(=O)c(C(=O)N2CCC(c3ncc(Cl)cc3F)C2)c1O` (single isomer, unassigned) [Example 323], 0.01 to 10 nM.

On to `CC[C@@H](c1ccccc1)n1c(-c2nc(C)cs2)nc(=O)c(C(=O)N2CCC(c3ccccc3F)C2)c1O` (single isomer, unassigned) [Example 324], for which the EC50 lay in the range of 0.01 to 10 nM. On to `CCc1cccc(CC)c1-n1c(-c2ccn(C3CC3)n2)nc(=O)c(C(=O)N2CCC(c3ncc(F)cc3F)C2)c1O` (single isomer, unassigned) [Example 325, 2-(1-cyclopropyl-1H-pyrazol-3-yl)-1-(2,6-diethylphenyl)-5-[3-(3,5-difluoropyridin-2-yl)pyrrolidine-1-carbonyl]-6-hydroxy-1,4-dihydropyrimidin-4-one], for which the 50% effective concentration (EC50) lay within 0.01 to 10 nM.

Regarding `CCn1ccc(-c2nc(=O)c(C(=O)N3CCC(c4ncc(Cl)cc4F)C3)c(O)n2[C@H](c2cc(F)cc(F)c2)C(C)C)n1` (single isomer, unassigned) [Example 326], the concentration giving a half-maximal response (EC50) was 0.01 to 10 nM. For `CCn1ccc(-c2nc(=O)c(C(=O)N3CCC(c4ncc(F)cc4F)C3)c(O)n2[C@H](c2cc(F)cc(F)c2)C(C)C)n1` (single isomer, unassigned) [Example 327] the value was 0.01 to 10 nM; for `CCc1cccc(CC)c1-n1c(-c2ccn(C3CC3)n2)nc(=O)c(C(=O)N2CCC(c3ccc(F)cn3)C2)c1O` (single isomer, unassigned) [Example 328, 2-(1-cyclopropyl-1H-pyrazol-3-yl)-1-(2,6-diethylphenyl)-5-[3-(5-fluoropyridin-2-yl)pyrrolidine-1-carbonyl]-6-hydroxy-1,4-dihydropyrimidin-4-one], 0.01 to 10 nM.

As to `CCCCc1nc(O)c(C(=O)N2CCC(c3ncc(F)cc3F)C2)c(=O)n1[C@@H](CC)c1ccccc1` (single isomer, unassigned) [Example 345], the EC50 is 0.01 to 10 nM. With `CCCCc1nc(O)c(C(=O)N2CCC(c3ncc(Cl)cc3F)C2)c(=O)n1[C@@H](COC)c1ccccc1` (single isomer, unassigned) [Example 352], the EC50 fell in the range of 0.01 to 10 nM. On to `CCOCc1nc(=O)c(C(=O)N2CCC(c3c(F)cccc3F)C2)c(O)n1-c1c(OC)cccc1OC` (single isomer, unassigned) [Example 353, 5-[3-(2,6-difluorophenyl)pyrrolidine-1-carbonyl]-1-(2,6-dimethoxyphenyl)-2-(ethoxymethyl)-6-hydroxy-1,4-dihydropyrimidin-4-one], for which the half-maximal effective concentration (EC50) was 0.01 to 10 nM. Take `CCOCc1nc(=O)c(C(=O)N2CCC(c3c(F)cccc3F)C2)c(O)n1-c1c(OC)cccc1OC` (single isomer, unassigned) [Example 354, 5-[3-(2,6-difluorophenyl)pyrrolidine-1-carbonyl]-1-(2,6-dimethoxyphenyl)-2-(ethoxymethyl)-6-hydroxy-1,4-dihydropyrimidin-4-one]: the EC50 was in the range of 0.01 to 10 nM. With `CCCCc1nc(=O)c(C(=O)N2CCC(c3ncc(Cl)cc3F)C2)c(O)n1-c1c(OC)cccc1OC` (single isomer, unassigned) [Example 356, 2-butyl-5-(3-(5-chloro-3-fluoropyridin-2-yl)pyrrolidine-1-carbonyl)-1-(2,6-dimethoxyphenyl)-6-hydroxypyrimidin-4(1H)-one], the EC50 lay within 0.01 to 10 nM. As for `CCCCc1nc(=O)c(C(=O)N2CCC(c3ncc(Cl)cc3F)C2)c(O)n1-c1c(OC)cccc1OC` (single isomer, unassigned) [Example 357, 2-butyl-5-(3-(5-chloro-3-fluoropyridin-2-yl)pyrrolidine-1-carbonyl)-1-(2,6-dimethoxyphenyl)-6-hydroxypyrimidin-4(1H)-one], the 50% effective concentration (EC50) lay within 0.01 to 10 nM. `CCCCc1nc(=O)c(C(=O)N2CCC(c3ncc(F)cc3F)C2)c(O)n1-c1c(OC)cccc1OC` (single isomer, unassigned) [Example 358, 2-butyl-5-(3-(3,5-difluoropyridin-2-yl)pyrrolidine-1-carbonyl)-1-(2,6-dimethoxyphenyl)-6-hydroxypyrimidin-4(1H)-one]: the half-maximal effective concentration (EC50) was in the range of 0.01 to 10 nM. For `CCCCc1nc(=O)c(C(=O)N2CCC(c3ncc(F)cc3F)C2)c(O)n1-c1c(OC)cccc1OC` (single isomer, unassigned) [Example 359, 2-butyl-5-(3-(3,5-difluoropyridin-2-yl)pyrrolidine-1-carbonyl)-1-(2,6-dimethoxyphenyl)-6-hydroxypyrimidin-4(1H)-one] the value was 0.01 to 10 nM.
